# From ChEMBL document CHEMBL5532643, “Design and synthesis of etrasimod derivatives as potent antibacterial agents against Gram-positive bacteria” (Eur J Med Chem, 2024)
# Several values for one entry are separate records, joined by “and”; a condition that tells them apart may be missing. Identical values can stand only once.
# How the values were obtained:
# Assay type in all cases: functional
# Staphylococcus aureus [1] = experiment: Antibiofilm activity against Staphylococcus aureus ATCC 25923 assessed as inhibition of biofilm viability at 100 uM incubated for 18 to 20 hrs by resazurin staining based assay; conditions: time 18-20 hrs
# Staphylococcus aureus [2] = experiment: Antibacterial activity against Staphylococcus aureus ATCC 25923 assessed as reduction in bacterial growth incubated for 18 to 20 hrs by broth microdilution assay; conditions: time 18-20 hrs
# Staphylococcus aureus [3] = experiment: Antibacterial activity against Staphylococcus aureus ATCC 25923 assessed as inhibition of bacterial growth at 40 uM incubated for 18 to 24 hrs by broth microdilution assay relative to control; conditions: time 18-24 hrs
# Staphylococcus aureus [4] = experiment: Antibiofilm activity against Staphylococcus aureus ATCC 25923 assessed as inhibition of biofilm biomass at 100 uM incubated for 18 to 20 hrs by crystal violet staining based assay; conditions: time 18-20 hrs
# Enterococcus faecalis [5] = experiment: Antibacterial activity against vancomycin-resistant Enterococcus faecalis ATCC 51575 assessed as reduction in bacterial growth incubated for 18 to 20 hrs by broth microdilution assay; conditions: time 18-20 hrs
# Acinetobacter baumannii = experiment: Antibacterial activity against Acinetobacter baumannii NCTC 13423 assessed as reduction in bacterial growth incubated for 18 to 20 hrs by broth microdilution assay; conditions: time 18-20 hrs
# Staphylococcus aureus [6] = experiment: Antibacterial activity against Staphylococcus aureus ATCC 43300 assessed as reduction in bacterial growth incubated for 18 to 20 hrs by broth microdilution assay; conditions: time 18-20 hrs
# Enterococcus faecalis [7] = experiment: Antibacterial activity against Enterococcus faecalis ATCC 29212 assessed as reduction in bacterial growth incubated for 18 to 20 hrs by broth microdilution assay; conditions: time 18-20 hrs
# Pseudomonas aeruginosa = experiment: Antibacterial activity against Pseudomonas aeruginosa ATCC 15442 assessed as reduction in bacterial growth incubated for 18 to 20 hrs by broth microdilution assay; conditions: time 18-20 hrs
# Staphylococcus aureus [8] = experiment: Antibacterial activity against […] Staphylococcus aureus ATCC 43300 assessed as reduction in bacterial growth incubated for 18 to 20 hrs by broth microdilution assay; conditions: time 18-20 hrs
# [9] = system: Staphylococcus epidermidis; experiment: Antibacterial activity against Staphylococcus epidermidis RP62A assessed as reduction in bacterial growth incubated for 18 to 20 hrs by broth microdilution assay; conditions: time 18-20 hrs
# [10] = system: Staphylococcus epidermidis; experiment: Antibacterial activity against […] Staphylococcus epidermidis RP62A assessed as reduction in bacterial growth incubated for 18 to 20 hrs by broth microdilution assay; conditions: time 18-20 hrs
# Enterococcus faecium = experiment: Antibacterial activity against vancomycin-resistant Enterococcus faecium ATCC 700221 assessed as reduction in bacterial growth incubated for 18 to 20 hrs by broth microdilution assay; conditions: time 18-20 hrs
SMILES,inhibition at 100 µM (Staphylococcus aureus [1]) [%],MIC (Staphylococcus aureus [2]),inhibition at 40 µM (Staphylococcus aureus [3]) [%],inhibition at 100 µM (Staphylococcus aureus [4]) [%],MIC (Enterococcus faecalis [5]) [µM],MIC (Acinetobacter baumannii) [µM],MIC (Staphylococcus aureus [6]) [µM],MIC (Enterococcus faecalis [7]) [µM],MIC (Pseudomonas aeruginosa) [µM],MIC (Staphylococcus aureus [8]) [µM],MIC [9] [µM],MIC [10] [µM],MIC (Enterococcus faecium) [µM]
CCOC(=O)CC1CCc2c1[nH]c1ccc(OCc3ccc(C4CCCC4)c(C(F)(F)F)c3)cc21 (stereo unspecified),> 90,> 40 µM and > 19.4 µg/mL,≤ 90,> 90,–,–,–,–,–,–,–,–,–
O=C(O)CC1CCc2c1[nH]c1ccc(OCc3ccc(OCC4CCCC4)c(C(F)(F)F)c3)cc21 (stereo unspecified),> 90,10 µM and 4.9 µg/mL,≤ 90,> 90,–,–,–,–,–,–,–,–,–
O=C(O)CC1CCc2c1[nH]c1ccc(OCc3ccc(-c4cccs4)c(C(F)(F)F)c3)cc21 (stereo unspecified),> 90,10 µM and 4.7 µg/mL,≤ 90,> 90,–,–,–,–,–,–,–,–,–
O=C(O)Cc1c[nH]c2ccc(OCc3ccc(C4CCCCC4)c(C(F)(F)F)c3)cc12,> 90,10 µM and 4.3 µg/mL,≤ 90,> 90,20,> 200,10,20,> 200,10,10,10,20
O=C(O)CC1CCc2c1[nH]c1ccc(OCc3ccc(C4CCCCC4)c(C(F)(F)F)c3)cc21 (stereo unspecified),> 90,5 µM and 2.4 µg/mL,≤ 90,> 90,–,–,–,–,–,–,–,–,–
O=C(O)CC1CCc2c1[nH]c1ccc(OCc3ccc(C4CCCC4)c(F)c3)cc21 (stereo unspecified),> 90,10 µM and 4.1 µg/mL,≤ 90,> 90,–,–,–,–,–,–,–,–,–
O=C(O)CC1CCc2c1[nH]c1ccc(OCc3ccc(N4CCOCC4)c(C(F)(F)F)c3)cc21 (stereo unspecified),> 90,> 40 µM and > 19 µg/mL,≤ 90,> 90,–,–,–,–,–,–,–,–,–
O=C(O)CC1CCc2c1[nH]c1ccc(OCc3ccc(C4CCCCC4)c(OC(F)(F)F)c3)cc21 (stereo unspecified),> 90,5 µM and 2.4 µg/mL,≤ 90,> 90,5,> 200,5,5,> 200,5,10,10,5
CCCCCCCCOc1ccc2[nH]c3c(c2c1)CCC3CC(=O)O (stereo unspecified),> 90,40 µM and 13.7 µg/mL,≤ 90,> 90,–,–,–,–,–,–,–,–,–
O=C(O)CC1CCCc2c1[nH]c1ccc(OCc3ccc(C4CCCC4)c(C(F)(F)F)c3)cc21 (stereo unspecified),> 90,5 µM and 2.4 µg/mL,≤ 90,> 90,10,> 200,5,5,> 200,5,10,5,5
CC(=O)NC[C@H]1CN(c2ccc(N3CCOCC3)c(F)c2)C(=O)O1 [LINEZOLID],–,–,–,–,5,–,–,5,–,–,–,–,5
O=C(O)CC1CCc2c1[nH]c1ccc(OCc3ccc(C4CCCC4)c(OC(F)(F)F)c3)cc21 (stereo unspecified),> 90,5 µM and 2.4 µg/mL,≤ 90,> 90,–,–,–,–,–,–,–,–,–
N#Cc1cc(COc2ccc3[nH]c4c(c3c2)CCC4CC(=O)O)ccc1C1CCCC1 (stereo unspecified),> 90,40 µM and 16.6 µg/mL,≤ 90,> 90,–,–,–,–,–,–,–,–,–
Cc1nc(-c2ccc(C(F)(F)F)cc2)sc1COc1ccc2[nH]c3c(c2c1)CCC3CC(=O)O (stereo unspecified),> 90,20 µM and 9.7 µg/mL,≤ 90,> 90,–,–,–,–,–,–,–,–,–
FC(F)(F)c1cc(COc2ccc3[nH]ccc3c2)ccc1C1CCCC1,> 90,> 40 µM and > 14.4 µg/mL,≤ 90,> 90,–,–,–,–,–,–,–,–,–
